Assay in all cases: ≥ marks a high value that may be exact or a test limit, other limits are often not marked, values filed in µg/mL are converted to µM
For experiment [1], the system named is Staphylococcus aureus NBRC 12732.
The subject of experiment [2] is Staphylococcus epidermidis NBRC 12933.
Experiment [3] deals with Bacillus subtilis NBRC 3513.
Experiment [4] has as its system Bacillus megaterium ATCC 19213.
Experiment [5] deals with Candida albicans ATCC 36802.
Experiment [6] relates to Aspergillus fumigatus IOC 4526.
In experiment [7] the test system is Candida tropicalis IOC 4560.
Experiment [8] has as its system Cryptococcus neoformans IOC 4528.
In experiment [9] the test system is Trichophyton rubrum IOC 4527.
The test system of a further experiment is Escherichia coli SBS 363.
For experiment [10], the system named is Cryptococcus neoformans ATCC 90112.
The subject of experiment [11] is Candida albicans IOC 4558.
Experiment [12] concerns Staphylococcus aureus ATCC 29213.
Another experiment concerns Candida krusei IOC 4559.
Experiment [13] concerns Pseudomonas aeruginosa ATCC 27853.
Experiment [14] deals with Trichosporon sp. IOC 4569.
In experiment [15] the test system is Candida parapsilosis IOC 4564.
Experiment [16] deals with Candida glabrata IOC 4565.

In brackets after ≈: the same amount, converted by molar mass.

Take `CC(C)C[C@H](NC(=O)[C@@H](N)CCCCN)C(=O)NCC(=O)N[C@@H](Cc1cnc[nH]1)C(=O)N[C@@H](Cc1cnc[nH]1)C(=O)NCC(=O)N[C@@H](CCCN=C(N)N)C(=O)N[C@@H](C)C(=O)N1CCC[C@H]1C(=O)N1CCC[C@H]1C(=O)O` [KLGHHGRAPP]: the MIC in [1], in experiment [2], in experiment [3] and in experiment [4] was at least 128 µM throughout.

On to `CC[C@H](C)[C@H](NC(=O)[C@H](CCCCN)NC(=O)[C@H](CCC(=O)O)NC(=O)[C@H](CCCCN)NC(=O)[C@@H]1CCCN1C(=O)[C@H](Cc1ccccc1)NC(=O)[C@H](CO)NC(=O)[C@H](Cc1cnc[nH]1)NC(=O)CNC(=O)CNC(=O)[C@H](CCCCN)NC(=O)[C@H](CCCCN)NC(=O)[C@H](Cc1cnc[nH]1)NC(=O)[C@H](CO)NC(=O)[C@H](CCC(N)=O)NC(=O)[C@@H](N)CCCCN)C(=O)N[C@@H](CO)C(=O)O` [KQSHKKGGHSFPKEKIS], for which the MIC in experiment [5] is at least 52 µM; in [6], at least 52 µM; in experiment [7], at least 41.6 µM; in [8], 4.41 µM (≈ 8.49 µg/mL); in [9], at least 52 µM; with Escherichia coli SBS 363, at least 41.6 µM. Further, the MIC in experiment [10] is 4.41 µM (≈ 8.49 µg/mL); in experiment [11], at least 41.6 µM; in experiment [12], above 41.6 µM; in the experiment on Candida krusei IOC 4559, 29.4 µM (≈ 56.6 µg/mL); in [13] it was above 41.6 µM; in experiment [14], at least 41.6 µM. The MIC in experiment [15] and in experiment [16] was at least 41.6 µM throughout.

The term MIC denotes the smallest concentration in the dilution series that meets the test's criterion for growth inhibition. Read a low MIC as greater potency.

The record behind these values is DBAASP.
